For 28 compounds, IC50, inhibition and Activity results are on record in ChEMBL document CHEMBL3856215, “Design and synthesis of N-(5-chloro-2,4-dihydroxybenzoyl)-(R)-1,2,3,4-tetrahydroisoquinoline-3-carboxamides as novel Hsp90 inhibitors” (Eur J Med Chem, 2016).

A short description of experiment [1]: Antiproliferative activity against human MDA-MB-231 cells after 72 hrs by SRB assay. Conditions: MDA-MB-231, 72 h. In kind it is functional, cell-based.
Experiment [2] can be described thus: Antiproliferative activity against human HeLa cells after 72 hrs by SRB assay. In kind it is functional, cell-based. (In general: The SRB assay estimates cell density from bound dye.)
Experiment [3] has as its target T1, Heat shock protein HSP90 (Homo sapiens) (UniProt P07900+P08238). Briefly: Inhibition of Hsp90 in human MDA-MB-231 cells assessed as downregulation of Cdc-2 expression after 24 hrs by Western blot analysis. In kind it is cell-based. In general terms: Immunoblotting shows a protein as a band on a membrane.
In experiment [4] the target is Heat shock protein HSP 90-alpha (Homo sapiens) (UniProt P07900). Briefly: Induction of thermal stabilization of Hsp90alpha in human 293T cells at 10 uM preincubated for 3 hrs followed by […] at 37 to 61 degC and subsequently […] at room temperature by Western blot method. In kind it is cell-based.
Experiment [5] has as its target T1, Heat shock protein HSP90 (Homo sapiens). The experiment can be described thus: Inhibition of Hsp90 in human MDA-MB-231 cells assessed as upregulation of Hsp70 expression after 24 hrs by Western blot analysis. In kind it is cell-based.
The target is the same in experiment [6]. Briefly: Inhibition of Hsp90 in human MDA-MB-231 cells assessed as downregulation of C-raf expression after 24 hrs by Western blot analysis. Format: cell-based.
Experiment [7] shares this target. Briefly: Inhibition of Hsp90 in human MDA-MB-231 cells assessed as downregulation of Her2 expression after 24 hrs by Western blot analysis. Format: cell-based.
The target in experiment [8] is Heat shock protein HSP 90-alpha (Homo sapiens) (UniProt P07900). The experiment can be described thus: Induction of thermal stabilization of Hsp90alpha in human 293T cells preincubated for 3 hrs followed by […] at 55 degC and subsequently […] at room temperature by Western blot method. Format: cell-based.
Experiment [9] deals with T1, Heat shock protein HSP90 (Homo sapiens). The experiment can be described thus: Inhibition of Hsp90 in human MDA-MB-231 cells assessed as downregulation of CDK4 expression after 24 hrs by Western blot analysis. In kind it is cell-based.

Active and inactive are the calls of the source. No cut-off for these calls is given here.

Turning to `CCCNC(=O)[C@H]1Cc2ccccc2CN1C(=O)c1cc(Cl)c(O)cc1O`, the figures for the IC50 in experiment [1] and in [2] were 2.58 µM and 3.98 µM, respectively.
On the same counts, the results for `CCN(CC)C(=O)[C@H]1Cc2ccccc2CN1C(=O)c1cc(Cl)c(O)cc1O` are 2.24 µM and 4.91 µM.
As for `O=C(NCc1ccccc1)[C@H]1Cc2ccccc2CN1C(=O)c1cc(Cl)c(O)cc1O`, the inhibition entry in experiment [3], in experiment [5], in experiment [6], in experiment [7] and in experiment [9] was “Dose-dependent effect” each time. In addition, the outcome in [4] was Active. Further, the IC50 was found to be 0.98 µM in experiment [1] and 1.74 µM in experiment [2]. Also, in experiment [8], the Activity result was “Dose-dependent effect”.
For `CCN(CC)C(=O)[C@@H]1Cc2ccccc2CN1C(=O)c1cc(Cl)c(O)cc1O`, the 50% inhibitory concentration (IC50) in experiment [1] worked out at 6.2 µM; in [2], 7.8 µM.
For `C=CCNC(=O)[C@H]1Cc2ccccc2CN1C(=O)c1cc(Cl)c(O)cc1O`, in that order: 2.15 µM and 3.07 µM.
On to `CCCNC(=O)[C@@H]1Cc2ccccc2CN1C(=O)c1cc(Cl)c(O)cc1O`, for which the half-inhibitory concentration (IC50) in [1] stood at 5.34 µM; in [2], 7.5 µM.
For `O=C([C@@H]1Cc2ccccc2CN1C(=O)c1cc(Cl)c(O)cc1O)N1CCCC1`, in that order: 7.88 µM and 9.76 µM.
On the same counts, the results for `CC(C)NC(=O)[C@@H]1Cc2ccccc2CN1C(=O)c1cc(Cl)c(O)cc1O` are 5.81 µM and 7.12 µM.
With `O=C(NCCc1ccccc1)[C@H]1Cc2ccccc2CN1C(=O)c1cc(Cl)c(O)cc1O`, the IC50 turned out to be 2.65 µM in experiment [1] and 4.75 µM in experiment [2].
With `O=C(NC1CCCC1)[C@H]1Cc2ccccc2CN1C(=O)c1cc(Cl)c(O)cc1O`, the figures for the concentration for half-maximal inhibition (IC50) in [1] and in [2] were 3.51 µM and 5.42 µM, respectively.
On the same counts, the results for `O=C(Nc1ccccc1)[C@@H]1Cc2ccccc2CN1C(=O)c1cc(Cl)c(O)cc1O` are more than 10 µM and more than 10 µM.
On the same counts, the results for `O=C([C@H]1Cc2ccccc2CN1C(=O)c1cc(Cl)c(O)cc1O)N1CCCC1` are 1.94 µM and 3.97 µM.
For `COC1=C2C[C@@H](C)C[C@H](OC)[C@H](O)[C@@H](C)/C=C(\C)[C@H](OC(N)=O)[C@@H](OC)/C=C\C=C(/C)C(=O)NC(=CC1=O)C2=O` [GELDANAMYCIN], in that order: 0.03 µM and 0.06 µM.
Consider `O=C([C@@H]1Cc2ccccc2CN1C(=O)c1cc(Cl)c(O)cc1O)N1CCCCC1`, for which the IC50 in experiment [1] is 9.64 µM; in experiment [2], 8.88 µM.
On the same counts, the results for `C=CCNC1=C2C[C@@H](C)C[C@H](OC)[C@H](O)[C@@H](C)/C=C(\C)[C@H](OC(N)=O)[C@@H](OC)/C=C\C=C(/C)C(=O)NC(=CC1=O)C2=O` [TANESPIMYCIN] are 0.52 µM and 0.2 µM.
On the same counts, the results for `O=C([C@H]1Cc2ccccc2CN1C(=O)c1cc(Cl)c(O)cc1O)N1CCCCC1` are 1.64 µM and 3.45 µM.
For `O=C(NCc1ccccc1)[C@@H]1Cc2ccccc2CN1C(=O)c1cc(Cl)c(O)cc1O`, in that order: 4.05 µM and 4.58 µM.
For `CC(C)NC(=O)[C@H]1Cc2ccccc2CN1C(=O)c1cc(Cl)c(O)cc1O`, the IC50 was 2.49 µM in experiment [1] and 3.08 µM in experiment [2].
With `O=C(NC1CCCC1)[C@@H]1Cc2ccccc2CN1C(=O)c1cc(Cl)c(O)cc1O`, the IC50 in [1] and in experiment [2] was more than 10 µM in each case.
As to `O=C(NC1CCCCC1)[C@@H]1Cc2ccccc2CN1C(=O)c1cc(Cl)c(O)cc1O`, the IC50 came out at 7.3 µM in experiment [1] and 5.42 µM in experiment [2].
For `CNC(=O)[C@@H]1Cc2ccccc2CN1C(=O)c1cc(Cl)c(O)cc1O`, in that order: 9.43 µM and more than 10 µM.
On the same counts, the results for `CCNC(=O)[C@@H]1Cc2ccccc2CN1C(=O)c1cc(Cl)c(O)cc1O` are 3.88 µM and 5.18 µM.
For `O=C(NC1CCCCC1)[C@H]1Cc2ccccc2CN1C(=O)c1cc(Cl)c(O)cc1O`, in that order: 2.05 µM and 3.55 µM.
With `CNC(=O)[C@H]1Cc2ccccc2CN1C(=O)c1cc(Cl)c(O)cc1O`, the IC50 in experiment [1] turned out to be 9.42 µM; in experiment [2] it was 7.62 µM.
For `C=CCNC(=O)[C@@H]1Cc2ccccc2CN1C(=O)c1cc(Cl)c(O)cc1O`, in that order: 6.74 µM and 7 µM.
For `CCNC(=O)[C@H]1Cc2ccccc2CN1C(=O)c1cc(Cl)c(O)cc1O`, the IC50 in experiment [1] amounted to 4.62 µM; in experiment [2], 4.57 µM.
On the same counts, the results for `O=C(NCCc1ccccc1)[C@@H]1Cc2ccccc2CN1C(=O)c1cc(Cl)c(O)cc1O` are 9.05 µM and more than 10 µM.
On the same counts, the results for `O=C(Nc1ccccc1)[C@H]1Cc2ccccc2CN1C(=O)c1cc(Cl)c(O)cc1O` are 1.9 µM and 2.69 µM.

Usually IC50 stands for the concentration that gives 50% inhibition.
